# Source: US20040063662A1, “Selenophene anti-tumor agents” (priority 1996, published 2004)
# Several values for one entry are separate records, joined by “and”; a condition that tells them apart may be missing. Equal values may be shown once. Read-outs that look alike come from different tables or passages of the source.
# Legend:
# [1] = biological target: T1, 50:50 mixture of recombinant mouse PKCα and mouse PKCβ2; experiment: Protein Kinase C (PKC) screening assay; assay type: biochemical; conditions: Inhibition of Protein Kinase C
# T1 construct: The enzymes are expressed in Sf9 insect cells from recombinant baculovirus and partially purified on DEAE-cellulose and Sephacryl 200 gel filtration
# Excerpt: The Protein Kinase C (PKC) screening assay utilized in the following experiments is similar to standard PKC assays used by many investigators. Its primary features are that 1) the assay utilizes a 50:50 mixture of recombinant mouse PKCα and mouse PKCβ2; 2) employs histone as phosphate-accepting substrate; and 3) the PKC enzymatic activity is activated with phosphatidylserine, TPA and low concentration of calcium, so that both calcium and TPA are somewhat limiting for the extent of activation. In this manner the assay is sensitive to inhibitors of PKC activation. A more detailed description of the assay is provided in the following paragraphs.
# The recombinant PKC formulation is a mixture (equal parts by activity) of mouse PKCα and mouse PKCβ2. The enzymes are expressed in Sf9 insect cells from recombinant baculovirus and partially purified on DEAE-cellulose and Sephacryl 200 gel filtration. Sufficient PKC is added to each reaction to provide approximately 4 pmols phosphate transferred in 30 minute (per total reaction.) The reaction is linear over the time when 4 pmols of phosphate is transferred and the reaction remains linear well beyond this time frame.
# The PKC screening assay is performed in 96 well polystyrene U bottom micro titer plates, in a total reaction volume of 50 ul. Solution manipulations are performed during the assay utilize a Rainin, motorized EDP-plus M8 eight-channel micropipettor.
# In some cases 50% DMSO:water, water, or methanol is substituted (if essential) for the solvent. At least 25 μl of the highest concentration sample to be assayed is transferred to a well in a 96 well U-bottom polystyrene assay plate. Serial 5-fold or 10-fold dilutions (depending on the dose-range desired) are made using the EDP-plus M8 eight-channel pipettor in dilute mode and mixing by repipetting. Using the 8-channel pipettor, 2 μl of each dilution is transferred to the appropriate wells of the plate(s) to be used for each assay. Duplicate assays are performed for each dose, with each assay, allowing six wells (half the row) for three-dose assays, or 12 wells (the whole row) for six-dose assays. In general, extracts and fractions are assayed at three doses: 400, 40 an 4 ug/ml, while pure compounds are tested at six doses: 400, 80, 16, 3.2, 0.64, 0.128 ([…]).
# [2] = tested on: ras-transformed human bronchial epithelial cells (TBE); experiment: Selective cytotoxicity microculture assay, ras-transformed bronchial epithelial cells; assay type: cell-based
# [3] = tested on: human renal carcinoma cells (A-498); experiment: Selective cytotoxicity microculture assay, human renal carcinoma
# [4] = In vitro activity of glycoside prodrug (preliminary); assay type: cell-based; conditions: preliminary results
# Excerpt: (§1) a. […] Scheme 8 illustrates a procedure utilized for the synthesis of glucoside, galactoside or, glucuronic acid analogs of α-terselenophene: [drawing 60]
# [5] = In vivo activity of glycoside prodrug (preliminary); conditions: preliminary results
# Excerpt: as §1
# [6] = Selective cytotoxicity microculture assay, human renal carcinoma; conditions: human, SCI (selectively cytotoxicity index), GI50 (RPTEC)/GI50 (A-498)
# [7] = tested on: normal human renal cells (RPTEC); experiment: Selective cytotoxicity microculture assay, normal human renal cells; assay type: cell-based
# [8] = Homo sapiens, Epithelial cell, read-out: GI50
# [9] = Homo sapiens, A498, A-498 human renal carcinoma
# [10] = Homo sapiens, RPTEC, read-out: GI50
Structure (SMILES),IC50 [1],selectivity ratio [6],"GI50 [2, 8]","GI50 [3, 9]","GI50 [7, 10]",also measured
O=Cc1ccc(-c2ccc(-c3ccc[se]3)[nH]2)[se]1 [compound 676634],0.8 µg/mL,–,–,–,–,GI50 [2]: 0.0003 µg/mL and 0.006 µg/mL; GI50 ([3]; A-498 human renal carcinoma): 0.0006 µg/mL and 0.003 µg/mL
O=Cc1ccc(-c2ccc(-c3cccs3)[se]2)s1 [compound 675346],0.5 µg/mL,–,–,–,–,–
OC[C@H]1O[C@@H](OCc2ccc(-c3ccc(-c4cccs4)s3)s2)[C@H](O)[C@@H](O)[C@@H]1O [β-D-glucoside of 2-hydroxymethyl-α-terthiophene],–,–,–,–,–,in vitro activity [4]: retains; in vivo activity [5]: retains
OCc1ccc(-c2ccc(-c3cccs3)[se]2)s1 [compound 675344],50 µg/mL,> 1000,–,–,–,GI50 [2]: <10^−2 μg/ml and 7 × 10^−6 μg/ml; GI50 ([3]; A-498 human renal carcinoma): 3e-07 µg/mL and 6e-08 µg/mL
COc1cccc2c1C(=O)c1c(O)c3c(c(O)c1C2=O)C[C@@](O)(C(=O)CO)C[C@@H]3O[C@H]1C[C@H](N)[C@H](O)[C@H](C)O1 [compound 123127],–,–,–,–,–,GI50 [2]: 0.03 µg/mL; GI50 ([3]; A-498 human renal carcinoma): 0.05 µg/mL; SCI (selectively cytotoxicity index) ([3]; GI50 (RPTEC)/GI50 (A-498)): 1; GI50 [7]: 0.05 µg/mL
c1csc(-c2ccc(-c3cccs3)[se]2)c1 [compound 675347],1 × 10^0 μg/ml,< 1,10 µg/mL,30 µg/mL,20 µg/mL,–
O=Cc1ccc(-c2ccc(-c3ccc[se]3)[se]2)[se]1 [compound 675244],1 × 10^0 μg/ml,–,–,–,–,–
c1csc(-c2ccc(-c3ccc[se]3)s2)c1,–,–,–,–,–,melting point: 103 to 104 °C
c1c[se]c(-c2ccc(-c3ccc[se]3)s2)c1 [compound 676628],1 × 10^0 μg/ml,5,100 µg/mL,80 µg/mL,400 µg/mL,–
c1c[se]c(-c2ccc(-c3ccc[se]3)[nH]2)c1 [compound 676633],6 × 10^0 μg/ml,< 1,10 µg/mL,100 µg/mL,20 µg/mL,–
O=Cc1ccc(-c2ccc(-c3ccc(C=O)s3)[se]2)s1 [compound 675345],0.9 µg/mL,–,–,–,–,–
OCc1ccc(-c2ccc(-c3ccc[se]3)[nH]2)[se]1 [compound 676635],8 × 10^0 μg/ml,> 1000,20 µg/mL,< 0.001 µg/mL,2 µg/mL,–
c1c[se]c(-c2ccc(-c3ccc[se]3)[se]2)c1 [compound 674973],7 × 10^0 μg/ml,1,4 µg/mL,3 µg/mL,4 µg/mL,–
O=Cc1ccc(-c2ccc(-c3ccc[se]3)s2)[se]1 [compound 676629],0.2 µg/mL,–,–,–,–,–
O=Cc1ccc(-c2ccc(-c3ccc(C=O)[se]3)s2)[se]1 [compound 676630],0.9 µg/mL,–,–,–,–,–
O=Cc1ccc(-c2ccc(-c3ccc(C=O)[se]3)[se]2)[se]1 [compound 675245],1 × 10^0 μg/ml,–,–,–,–,–
